Legend:
[1] = (§1) The drug is tested on Z-010 corresponding to metagenome with ENA study accession number: PRJEB37062 and ENA sample accession number: ERS12561810 for biotransformation under anaerobic condition. The drug concentrations were measured over 9 timepoints collected between 0 and 24 hours of incubation by liquid-chromatography-coupled mass spectrometry (LC–MS); conditions: 2 µM
[2] = (§2) The drug is tested on Z-020 corresponding to rabbit gut metagenome with ENA study accession number: PRJEB37062 and ENA sample accession number: ERS12561819 for biotransformation under anaerobic condition. The drug concentrations were measured over 9 timepoints collected between 0 and 24 hours of incubation by liquid-chromatography-coupled mass spectrometry (LC–MS); conditions: 2 µM
[3] = as §2, with “WLS-220” for “Z-020”, “human” for “rabbit”, “ERS12561769” for “ERS12561819”; conditions: 2 µM
[4] = as §2, with “WLS-370” for “Z-020”, “human” for “rabbit”, “ERS12561793” for “ERS12561819”; conditions: 2 µM
[5] = human gut metagenome, 24 h, 2 µM
[6] = human gut metagenome, 24 h, 2 µM; remark: listed apart in the source
[7] = as §2, with “WLS-240” for “Z-020”, “human” for “rabbit”, “ERS12561773” for “ERS12561819”; conditions: 2 µM
[8] = as §2, with “WLS-350” for “Z-020”, “human” for “rabbit”, “ERS12561789” for “ERS12561819”; conditions: 2 µM
[9] = as §2, with “Z-003” for “Z-020”, “pig” for “rabbit”, “ERS12561803” for “ERS12561819”; conditions: 2 µM
[10] = human gut metagenome, 24 h, 2 µM; remark: listed apart in the source
[11] = human gut metagenome, 24 h, 2 µM; remark: listed apart in the source
[12] = human gut metagenome, 24 h, 2 µM; remark: listed apart in the source
[13] = as §1, with “Z-004” for “Z-010”, “ERS12561804” for “ERS12561810”; conditions: 2 µM
[14] = human gut metagenome, 24 h, 2 µM; remark: listed apart in the source
[15] = human gut metagenome, 24 h, 2 µM; remark: listed apart in the source
[16] = as §1, with “Z-027” for “Z-010”, “ERS12561826” for “ERS12561810”; conditions: 2 µM
[17] = as §2, with “Z-013” for “Z-020”, “ERS12561813” for “ERS12561819”; conditions: 2 µM
[18] = as §1, with “Z-026” for “Z-010”, “ERS12561825” for “ERS12561810”; conditions: 2 µM
[19] = human gut metagenome, 24 h, 2 µM; remark: listed apart in the source
[20] = human gut metagenome, 24 h, 2 µM; remark: listed apart in the source
Note: call rule not given here.

Row | Bacterial Biotransformation [1] | Bacterial Biotransformation [2] | Bacterial Biotransformation [3] | Bacterial Biotransformation [4] | Bacterial Biotransformation [5] | Bacterial Biotransformation [6] | Bacterial Biotransformation [7] | Bacterial Biotransformation [8] | Bacterial Biotransformation [9] | Bacterial Biotransformation [10] | Bacterial Biotransformation [11] | Bacterial Biotransformation [12] | Bacterial Biotransformation [13] | Bacterial Biotransformation [14] | Bacterial Biotransformation [15] | Bacterial Biotransformation [16] | Bacterial Biotransformation [17] | Bacterial Biotransformation [18] | Bacterial Biotransformation [19] | Bacterial Biotransformation [20] | SMILES
1 | Compound NOT metabolized | Compound metabolized | Compound NOT metabolized | Compound NOT metabolized | Compound NOT metabolized | Compound metabolized | Compound NOT metabolized | Compound NOT metabolized | Compound NOT metabolized | Compound NOT metabolized | Compound NOT metabolized | Compound NOT metabolized | Compound metabolized | Compound metabolized | Compound NOT metabolized | Compound NOT metabolized | Compound NOT metabolized | Compound NOT metabolized | Compound metabolized | Compound NOT metabolized | Cc1ccccc1C(OCCN(C)C)c1ccccc1.O=C(O)CC(O)(CC(=O)O)C(=O)O (stereo not given) [ORPHENADRINE CITRATE]
2 | Compound metabolized | Compound metabolized | Compound NOT metabolized | Compound NOT metabolized | Compound NOT metabolized | Compound NOT metabolized | Compound NOT metabolized | Compound NOT metabolized | Compound metabolized | Compound NOT metabolized | Compound metabolized | Compound NOT metabolized | Compound NOT metabolized | Compound NOT metabolized | Compound NOT metabolized | Compound NOT metabolized | Compound metabolized | Compound metabolized | Compound NOT metabolized | Compound metabolized | CC(=O)O[C@H]1C(=O)[C@@]2(C)[C@H]([C@H](OC(=O)c3ccccc3)[C@]3(O)C[C@H](OC(=O)[C@H](O)[C@@H](NC(=O)c4ccccc4)c4ccccc4)C(C)=C1C3(C)C)[C@]1(OC(C)=O)CO[C@@H]1C[C@@H]2O [PACLITAXEL]

Row | SMILES | Bacterial Biotransformation [1] | Bacterial Biotransformation [2] | Bacterial Biotransformation [3] | Bacterial Biotransformation [4] | Bacterial Biotransformation [5] | Bacterial Biotransformation [6] | Bacterial Biotransformation [7] | Bacterial Biotransformation [8] | Bacterial Biotransformation [9] | Bacterial Biotransformation [10] | Bacterial Biotransformation [11] | Bacterial Biotransformation [12] | Bacterial Biotransformation [13] | Bacterial Biotransformation [14] | Bacterial Biotransformation [15] | Bacterial Biotransformation [16] | Bacterial Biotransformation [17] | Bacterial Biotransformation [18] | Bacterial Biotransformation [19] | Bacterial Biotransformation [20]
3 | CN(C)C(=O)Oc1cccc([N+](C)(C)C)c1.[Br-] [NEOSTIGMINE BROMIDE] | Compound NOT metabolized | Compound NOT metabolized | Compound NOT metabolized | Compound NOT metabolized | Compound NOT metabolized | Compound NOT metabolized | Compound NOT metabolized | Compound NOT metabolized | Compound metabolized | Compound NOT metabolized | Compound NOT metabolized | Compound NOT metabolized | Compound NOT metabolized | Compound NOT metabolized | Compound NOT metabolized | Compound NOT metabolized | Compound NOT metabolized | Compound NOT metabolized | Compound NOT metabolized | Compound NOT metabolized
